Each structure is given as a SMILES string.

The target in the test is T1, JAK3 (JH1 and JH2 domain) (Homo sapiens, UniProt P52333).
T1 sequence (P52333 521-1111 limits assumed): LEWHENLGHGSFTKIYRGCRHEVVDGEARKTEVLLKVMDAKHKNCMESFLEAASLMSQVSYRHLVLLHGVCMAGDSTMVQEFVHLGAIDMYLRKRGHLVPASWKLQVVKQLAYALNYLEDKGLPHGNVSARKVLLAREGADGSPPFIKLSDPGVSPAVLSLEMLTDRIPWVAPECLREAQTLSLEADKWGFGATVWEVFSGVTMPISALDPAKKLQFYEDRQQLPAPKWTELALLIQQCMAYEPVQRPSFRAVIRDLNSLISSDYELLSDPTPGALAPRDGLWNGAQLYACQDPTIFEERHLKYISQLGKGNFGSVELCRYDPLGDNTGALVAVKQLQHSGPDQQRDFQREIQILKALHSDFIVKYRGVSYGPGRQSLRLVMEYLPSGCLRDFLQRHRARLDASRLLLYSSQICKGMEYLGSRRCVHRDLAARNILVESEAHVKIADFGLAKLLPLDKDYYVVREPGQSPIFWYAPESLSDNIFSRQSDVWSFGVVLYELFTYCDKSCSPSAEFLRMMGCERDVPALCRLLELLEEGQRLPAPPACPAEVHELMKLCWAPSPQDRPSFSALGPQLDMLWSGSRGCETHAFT
Put plainly: JAK3 Kinase Assay (ELISA of peptide substrate phosphorylation). The class given is biochemical. The note with it: purified JAK3 enzyme, 10 μM ATP, biotinylated peptide substrate, 1 hour at room temperature. Summed up: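 Sf21-baculovirus-expressed JAK3 (JH1+JH2), glutathione-bead purified, with biotinylated peptide substrate (in buffer containing 10 μM ATP) in HEPES pH 7.5/MgCl2/DTT, 1 h RT. Product was captured on Neutravidin, detected with HRP anti-phosphotyrosine (PY99)/TMB, OD 450/650 nm. Triplicate 16-point half-log series from 200 μM gave IC50; otherwise % inhibition at 1 μM.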
For orientation: An ELISA detects its analyte on a solid surface through an enzyme-linked reagent.
Broadly, the IC50 is the concentration needed to halve the response being measured. On to `CN(C)CCCN1CCN(C(=O)OC2Cn3c4ccccc4c4c5c(c6c7ccccc7n(c6c43)CC2O)C(=O)NC5=O)CC1` (stereo not shown) [Cpd 97, 12,13-(2-{[4-(3-dimethylamino-prop-1-yl)piperazin-1-yl]carbonyloxy}-3-hydroxy-butan-1,4-yl)-12,13-dihydro-5,7-dioxo-6H-indolo[2,3-a]pyrrolo[3,4-c]carbazole], for which the IC50 came out at 175 nM. `Cc1ccc(CNC(=O)OCC2Cn3c4ccccc4c4c5c(c6c7ccccc7n(c6c43)C2)C(=O)NC5)o1` (stereo not shown) [Cpd 156, 12,13-(2-{[(5-methyl-furan-2-yl)methyl]carbamoyloxymethyl}-propan-1,3-yl)-6,7,12,13-tetrahydro-5-oxo-5H-indolo[2,3-a]pyrrolo[3,4-c]carbazole]: the IC50 is about 200 nM. The value for `O=C1NC(=O)c2c1c1c3ccccc3n3c1c1c2c2ccccc2n1CC(OC(=O)N1CCOCC1)C(O)C3` (stereo not shown) [Cpd 98, 12,13-[2-(morpholin-4-yl-carbonyloxy)-3-hydroxy-butan-1,4-yl]-12,13-dihydro-5,7-dioxo-6H-indolo[2,3-a]pyrrolo[3,4-c]carbazole] was 108 nM; that for `O=C1NC(=O)c2c1c1c3ccccc3n3c1c1c2c2ccccc2n1CC(O)(C(=O)NCCCN1CCCC1=O)C(O)C3` (stereo not shown) [Cpd 127, 12,13-(2-{[3-(2-oxo-pyrrolidin-1-yl)prop-1-yl]carbamoyl}-2,3-dihydroxy-butan-1,4-yl)-12,13-dihydro-5,7-dioxo-6H-indolo[2,3-a]pyrrolo[3,4-c]carbazole] was 48 nM. Turning to `C=C1Cn2c3ccccc3c3c4c(c5c6ccccc6n(c5c32)C1)C(=O)NC4` [Cpd 22, 12,13-(2-methylene-propan-1,3-yl)-6,7,12,13-tetrahydro-5-oxo-5H-indolo[2,3-a]pyrrolo[3,4-c]carbazole], the half-maximal inhibitory concentration (IC50) was found to be 72 nM.

Regarding `O=C(NCCN1CCCC1)OC1Cn2c3ccccc3c3c4c(c5c6ccccc6n(c5c32)CC1O)C(=O)NC4=O` (stereo not shown) [Cpd 92, 12,13-{2-[(2-pyrrolidin-1-yl-ethyl)carbamoyloxy]-3-hydroxy-butan-1,4-yl}-12,13-dihydro-5,7-dioxo-6H-indolo[2,3-a]pyrrolo[3,4-c]carbazole], the IC50 was 97 nM. The value for `O=C1NCc2c1c1c3ccccc3n3c1c1c2c2ccccc2n1CC(O)(COC(=O)N1CCOCC1)C3` (stereo not shown) [Cpd 138, 12,13-[2-hydroxy-2-(morpholin-4-yl-carbonyloxymethyl)-propan-1,3-yl]-6,7,12,13-tetrahydro-5-oxo-5H-indolo[2,3-a]pyrrolo[3,4-c]carbazole] was 161 nM; that for `O=C1NCc2c1c1c3cc(Br)ccc3n3c1c1c2c2ccccc2n1CC(O)C(O)C3` (stereo not shown) [Cpd 188, 3-bromo-12,13-(2,3-dihydroxy-butan-1,4-yl)-6,7,12,13-tetrahydro-5-oxo-5H-indolo[2,3-a]pyrrolo[3,4-c]carbazole] was 34 nM. The value for `CN(C)[C@H]1CCN(C(=O)OCC2Cn3c4ccccc4c4c5c(c6c7ccccc7n(c6c43)C2)C(=O)NC5)C1` (stereo partly drawn) [Cpd 171, 12,13-(2-{[(3S)-3-dimethylamino-pyrrolidin-1-yl]carbonyloxymethyl}-propan-1,3-yl)-6,7,12,13-tetrahydro-5-oxo-5H-indolo[2,3-a]pyrrolo[3,4-c]carbazole] was 677 nM; that for `COc1ccccc1N1CCN(C(=O)OC2CCn3c4ccccc4c4c5c(c6c7ccccc7n(c6c43)C2)C(=O)NC5=O)CC1` (stereo not shown) [Cpd 70, 12,13-(2-{[4-(2-methoxy-phenyl)piperazin-1-yl]carbonyloxy}-butan-1,4-yl)-12,13-dihydro-5,7-dioxo-6H-indolo[2,3-a]pyrrolo[3,4-c]carbazole] was 71 nM. The value for `CC1(C)O[C@@H]2Cn3c4ccccc4c4c5c(c6c7ccccc7n(c6c43)C[C@H]2O1)C(=O)NC5` [Cpd 17, 12,13-[(4R,5R)-2,2-dimethyl-[1,3]dioxolo[4,5-b]butan-1,4-yl]-6,7,12,13-tetrahydro-5-oxo-5H-indolo[2,3-a]pyrrolo[3,4-c]carbazole] was 45 nM. For `O=C1NCc2c1c1c3ccccc3n3c1c1c2c2ccccc2n1C[C@H](O)[C@@H](O)C3` [Cpd 18, 12,13-[(2S,3S)-dihydroxy-butan-1,4-yl]-6,7,12,13-tetrahydro-5-oxo-5H-indolo[2,3-a]pyrrolo[3,4-c]carbazole], the half-maximal inhibitory concentration (IC50) was 32 nM. The value for `O=C1NCc2c1c1c3ccccc3n3c1c1c2c2ccccc2n1CCC(O)C(O)CC3` (stereo not shown) [Cpd 21, 12,13-(3,4-dihydroxy-hexan-1,6-yl)-6,7,12,13-tetrahydro-5-oxo-5H-indolol[2,3-a]pyrrolo[3,4-c]carbazole] was 12 nM. For `CC(=O)c1ccc(N2CCN(C(=O)OC3CCn4c5ccccc5c5c6c(c7c8ccccc8n(c7c54)C3)C(=O)NC6=O)CC2)cc1` (stereo not shown) [Cpd 59, 12,13-(2-{[4-(4-methylcarbonyl-phenyl)piperazin-1-yl]carbonyloxy}-butan-1,4-yl)-12,13-dihydro-5,7-dioxo-6H-indolo[2,3-a]pyrrolo[3,4-c]carbazole], the 50% inhibitory concentration (IC50) was determined as 547 nM. The value for `CN(C)CCCN1CCN(C(=O)OC2CCCn3c4ccccc4c4c5c(c6c7ccccc7n(c6c43)C2)C(=O)NC5=O)CC1` (stereo not shown) [Cpd 115, 12,13-(2-{[4-(3-dimethylamino-prop-1-yl)piperazin-1-y]carbonyloxy}-pentan-1,5-yl)-12,13-dihydro-5,7-dioxo-6H-indolo[2,3-a]pyrrolo[3,4-c]carbazole] was over 200 nM; that for `O=C(NCCCN1CCOCC1)OC1CCn2c3ccccc3c3c4c(c5c6ccccc6n(c5c32)C1)C(=O)NC4=O` (stereo not shown) [Cpd 42, 12,13-{2-[(3-morpholin-4-yl-prop-1-yl)carbamoyloxy]-butan-1,4-yl}-12,13-dihydro-5,7-dioxo-6H-indolo[2,3-a]pyrrolo[3,4-c]carbazole] was 149 nM; that for `O=C1NCc2c1c1c3ccccc3n3c1c1c2c2ccccc2n1Cc1c[nH]cc1C3` [Cpd 30, 12,13-(1H-pyrrol[3,4-b]butan-1,4-yl)-6,7,12,13-tetrahydro-5-oxo-5H-indolo[2,3-a]pyrrolo[3,4-c]carbazole] was 68 nM. Consider `CN(C)C1CCN(C(=O)C2(O)Cn3c4ccccc4c4c5c(c6c7ccccc7n(c6c43)CC2O)C(=O)NC5=O)C1` (stereo not shown) [Cpd 119, 12,13-{2-[(3-dimethylamino-pyrrolidin-1-yl)carbonyl]-2,3-dihydroxy-butan-1,4-yl}-12,13-dihydro-5,7-dioxo-6H-indolo[2,3-a]pyrrolo[3,4-c]carbazole], for which the IC50 came to 15 nM. Regarding `CN1CCC(N(C)Cc2ccc3c(c2)c2c4c(c5c6ccccc6n6c5c2n3CC(O)C(O)C6)CNC4=O)CC1` (stereo not shown) [Cpd 196, 3-{[N-methyl-N-(1-methyl-piperidin-4-yl)]aminomethyl}-12,13-(2,3-dihydroxy-butan-1,4-yl)-6,7,12,13-tetrahydro-5-oxo-5H-indolo[2,3-a]pyrrolo[3,4-c]carbazole], the IC50 is about 1000 nM. The value for `CC(C)NC(=O)OC1CCn2c3ccccc3c3c4c(c5c6ccccc6n(c5c32)CC1)C(=O)NC4` (stereo not shown) [Cpd 180, 12,13-[3-(isopropyl-carbamoyloxy)-pentan-1,5-yl]-6,7,12,13-tetrahydro-5-oxo-5H-indolo[2,3-a]pyrrolo[3,4-c]carbazole] was 706 nM; that for `O=C1NCc2c1c1c3ccccc3n3c1c1c2c2ccccc2n1CC(COC(=O)N1CCN(c2ccc(O)cc2)CC1)C3` (stereo not shown) [Cpd 158, 12,13-(2-{[4-(4-hydroxy-phenyl)piperazin-1-yl]carbonyloxymethyl}-propan-1,3-yl)-6,7,12,13-tetrahydro-5-oxo-5H-indolo[2,3-a]pyrrolo[3,4-c]carbazole] was 123 nM. On to `O=C1NCc2c1c1c3cc(Cn4ccnc4)ccc3n3c1c1c2c2ccccc2n1CC(O)C(O)C3` (stereo not shown) [Cpd 202, 3-(imidazol-1-ylmethyl)-12,13-(2,3-dihydroxy-butan-1,4-yl)-6,7,12,13-tetrahydro-5-oxo-5H-indolo[2,3-a]pyrrolo[3,4-c]carbazole], for which the IC50 was 103 nM. As for `O=C(NCCCN1CCCC1=O)OC1Cn2c3ccccc3c3c4c(c5c6ccccc6n(c5c32)CC1O)C(=O)NC4=O` (stereo not shown) [Cpd 79, 12,13-(2-{[3-(2-oxo-pyrrolidin-1-yl)prop-1-yl]carbamoyloxy}-3-hydroxy-butan-1,4-yl)-12,13-dihydro-5,7-dioxo-6H-indolo[2,3-a]pyrrolo[3,4-c]carbazole], the IC50 is 48 nM. As for `O=C1NCc2c1c1c3ccccc3n3c1c1c2c2ccccc2n1CC(O)(COC(=O)N1CCN(c2ccncc2)CC1)C3` (stereo not shown) [Cpd 144, 12,13-{2-hydroxy-2-[(4-pyridin-4-yl-piperazin-1-yl)carbonyloxymethyl]-propan-1,3-yl}-6,7,12,13-tetrahydro-5-oxo-5H-indolo[2,3-a]pyrrolo[3,4-c]carbazole], the figure is 886 nM. For the compound `CN(C)CCN(C)C(=O)OC1Cn2c3ccccc3c3c4c(c5c6ccccc6n(c5c32)CC1O)C(=O)NC4=O` (stereo not shown) [Cpd 107, 12,13-(2-{[N-methyl-N-(2-dimethylamino-ethyl)]carbamoyloxy}-3-hydroxy-butan-1,4-yl)-12,13-dihydro-5,7-dioxo-6H-indolo[2,3-a]pyrrolo[3,4-c]carbazole], the IC50 was 180 nM.

(Values after patent US20070249590A1, “Substituted indolo[2,3-a]pyrrolo[3,4-c]carbazole compounds useful in treating kinase disorders” (priority 2005, published 2007).)
